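Growth conditions: 96-well plates. Treatment: test compound, 48 hours, 5 concentrations. Analysis: linear interpolation between bracketing concentrations; unreached endpoints set to highest concentration. TGI denotes the concentration required for complete inhibition of growth.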
What was measured:
Test in all cases: inhibition of tumour cell growth, NCI panel, 48 h
786-0 renal = system: 786-0 renal
A549 NSCLC = system: A549 NSCLC
ACHN renal = system: ACHN renal
CCRF-CEM leukemia = system: CCRF-CEM leukemia
COLO 205 colon = system: COLO 205 colon
DU-145 prostate = system: DU-145 prostate
EKVX NSCLC = system: EKVX NSCLC
HCC-2998 colon = system: HCC-2998 colon
HCT-116 colon = system: HCT-116 colon
HCT-15 colon = system: HCT-15 colon
HL-60(TB) leukemia = system: HL-60(TB) leukemia
HOP-62 NSCLC = system: HOP-62 NSCLC
HOP-92 NSCLC = system: HOP-92 NSCLC
HS 578T breast = system: HS 578T breast
HT29 colon = system: HT29 colon
IGROV1 ovarian = system: IGROV1 ovarian
K-562 leukemia = system: K-562 leukemia
KM12 colon = system: KM12 colon
LOX IMVI melanoma = system: LOX IMVI melanoma
M14 melanoma = system: M14 melanoma
MALME-3M melanoma = system: MALME-3M melanoma
MCF7 breast = system: MCF7 breast
MDA-MB-231 breast = system: MDA-MB-231 breast
MDA-MB-435 = system: MDA-MB-435
MDA-N = system: MDA-N
MOLT-4 leukemia = system: MOLT-4 leukemia
NCI-H226 lung = system: NCI-H226 lung
NCI-H23 lung = system: NCI-H23 lung
NCI-H460 lung = system: NCI-H460 lung
NCI-H522 lung = system: NCI-H522 lung
NCI/ADR-RES ovarian = system: NCI/ADR-RES ovarian
OVCAR-3 ovarian = system: OVCAR-3 ovarian
OVCAR-4 ovarian = system: OVCAR-4 ovarian
OVCAR-5 ovarian = system: OVCAR-5 ovarian
OVCAR-8 ovarian = system: OVCAR-8 ovarian
PC-3 prostate = system: PC-3 prostate
RPMI-8226 leukemia = system: RPMI-8226 leukemia
RXF 393 renal = system: RXF 393 renal
SF-268 CNS = system: SF-268 CNS
SF-295 CNS = system: SF-295 CNS
SF-539 CNS = system: SF-539 CNS
SK-MEL-2 melanoma = system: SK-MEL-2 melanoma
SK-MEL-28 melanoma = system: SK-MEL-28 melanoma
SK-MEL-5 melanoma = system: SK-MEL-5 melanoma
SK-OV-3 ovarian = system: SK-OV-3 ovarian
SN12C renal = system: SN12C renal
SNB-19 CNS = system: SNB-19 CNS
SNB-75 CNS = system: SNB-75 CNS
SR leukemia = system: SR leukemia
SW-620 colon = system: SW-620 colon
T-47D breast = system: T-47D breast
TK-10 renal = system: TK-10 renal
U251 CNS = system: U251 CNS
UACC-257 melanoma = system: UACC-257 melanoma
UACC-62 melanoma = system: UACC-62 melanoma
UO-31 renal = system: UO-31 renal
A498 renal = system: A498 renal
CAKI-1 renal = system: CAKI-1 renal

Cc1cc(C23OC4COC(C)(C)OC4C2OC(C)(C)O3)nc2ccccc12 (stereo not drawn)
TGI (786-0 renal): > 100 µM
TGI (A549 NSCLC): > 100 µM
TGI (ACHN renal): > 100 µM
TGI (CCRF-CEM leukemia): > 100 µM
TGI (COLO 205 colon): > 100 µM
TGI (DU-145 prostate): > 100 µM
TGI (EKVX NSCLC): > 100 µM
TGI (HCC-2998 colon): > 100 µM
TGI (HCT-116 colon): > 100 µM
TGI (HCT-15 colon): > 100 µM
TGI (HL-60(TB) leukemia): > 100 µM
TGI (HOP-62 NSCLC): > 100 µM
TGI (HOP-92 NSCLC): > 100 µM
TGI (HS 578T breast): > 100 µM
TGI (HT29 colon): > 100 µM
TGI (IGROV1 ovarian): > 100 µM
TGI (K-562 leukemia): > 100 µM
TGI (KM12 colon): > 100 µM
TGI (LOX IMVI melanoma): > 100 µM
TGI (M14 melanoma): > 100 µM
TGI (MALME-3M melanoma): > 100 µM
TGI (MCF7 breast): > 100 µM
TGI (MDA-MB-231 breast): > 100 µM
TGI (MDA-MB-435): > 100 µM
TGI (MDA-N): > 100 µM
TGI (MOLT-4 leukemia): > 100 µM
TGI (NCI-H226 lung): > 100 µM
TGI (NCI-H23 lung): > 100 µM
TGI (NCI-H460 lung): > 100 µM
TGI (NCI-H522 lung): > 100 µM
TGI (NCI/ADR-RES ovarian): > 100 µM
TGI (OVCAR-3 ovarian): > 100 µM
TGI (OVCAR-4 ovarian): > 100 µM
TGI (OVCAR-5 ovarian): > 100 µM
TGI (OVCAR-8 ovarian): > 100 µM
TGI (PC-3 prostate): > 100 µM
TGI (RPMI-8226 leukemia): > 100 µM
TGI (RXF 393 renal): > 100 µM
TGI (SF-268 CNS): > 100 µM
TGI (SF-295 CNS): > 100 µM
TGI (SF-539 CNS): > 100 µM
TGI (SK-MEL-2 melanoma): > 100 µM
TGI (SK-MEL-28 melanoma): > 100 µM
TGI (SK-MEL-5 melanoma): > 100 µM
TGI (SK-OV-3 ovarian): > 100 µM
TGI (SN12C renal): > 100 µM
TGI (SNB-19 CNS): > 100 µM
TGI (SNB-75 CNS): > 100 µM
TGI (SR leukemia): > 100 µM
TGI (SW-620 colon): > 100 µM
TGI (T-47D breast): > 100 µM
TGI (TK-10 renal): > 100 µM
TGI (U251 CNS): > 100 µM
TGI (UACC-257 melanoma): > 100 µM
TGI (UACC-62 melanoma): > 100 µM
TGI (UO-31 renal): > 100 µM

CC(C)C(O)(C(=O)OCN1C(=O)C2C3C=CC(C2C1=O)C1C2C(=O)N(COC(=O)C(O)(C(C)C)C(C)O)C(=O)C2C31)C(C)O (stereo not drawn)
TGI (786-0 renal): > 100 µM
TGI (A498 renal): > 100 µM
TGI (A549 NSCLC): > 100 µM
TGI (ACHN renal): > 100 µM
TGI (CAKI-1 renal): > 100 µM
TGI (CCRF-CEM leukemia): > 100 µM
TGI (COLO 205 colon): > 100 µM
TGI (DU-145 prostate): > 100 µM
TGI (EKVX NSCLC): > 100 µM
TGI (HCC-2998 colon): > 100 µM
TGI (HCT-116 colon): > 100 µM
TGI (HCT-15 colon): > 100 µM
TGI (HL-60(TB) leukemia): > 100 µM
TGI (HOP-62 NSCLC): > 100 µM
TGI (HS 578T breast): > 100 µM
TGI (HT29 colon): > 100 µM
TGI (IGROV1 ovarian): > 100 µM
TGI (K-562 leukemia): > 100 µM
TGI (KM12 colon): > 100 µM
TGI (M14 melanoma): > 100 µM
TGI (MALME-3M melanoma): > 100 µM
TGI (MCF7 breast): > 100 µM
TGI (MDA-MB-231 breast): > 100 µM
TGI (MDA-MB-435): > 100 µM
TGI (MDA-N): > 100 µM
TGI (MOLT-4 leukemia): > 100 µM
TGI (NCI-H226 lung): > 100 µM
TGI (NCI-H23 lung): > 100 µM
TGI (NCI-H460 lung): > 100 µM
TGI (NCI-H522 lung): > 100 µM
TGI (NCI/ADR-RES ovarian): > 100 µM
TGI (OVCAR-3 ovarian): > 100 µM
TGI (OVCAR-4 ovarian): > 100 µM
TGI (OVCAR-5 ovarian): > 100 µM
TGI (OVCAR-8 ovarian): > 100 µM
TGI (PC-3 prostate): > 100 µM
TGI (RPMI-8226 leukemia): > 100 µM
TGI (RXF 393 renal): > 100 µM
TGI (SF-268 CNS): > 100 µM
TGI (SF-295 CNS): > 100 µM
TGI (SF-539 CNS): > 100 µM
TGI (SK-MEL-2 melanoma): > 100 µM
TGI (SK-MEL-28 melanoma): > 100 µM
TGI (SK-MEL-5 melanoma): > 100 µM
TGI (SK-OV-3 ovarian): > 100 µM
TGI (SN12C renal): > 100 µM
TGI (SNB-19 CNS): > 100 µM
TGI (SNB-75 CNS): > 100 µM
TGI (SR leukemia): > 100 µM
TGI (SW-620 colon): > 100 µM
TGI (T-47D breast): > 100 µM
TGI (TK-10 renal): > 100 µM
TGI (U251 CNS): > 100 µM
TGI (UACC-62 melanoma): > 100 µM
TGI (UO-31 renal): > 100 µM

Cc1nc(Nc2ccc(Cl)cc2Cl)sc1C(=O)Nc1ccccc1
TGI (786-0 renal): > 100 µM
TGI (A498 renal): > 100 µM
TGI (A549 NSCLC): > 100 µM
TGI (ACHN renal): > 100 µM
TGI (CAKI-1 renal): > 100 µM
TGI (CCRF-CEM leukemia): > 100 µM
TGI (COLO 205 colon): > 100 µM
TGI (DU-145 prostate): > 100 µM
TGI (EKVX NSCLC): > 100 µM
TGI (HCC-2998 colon): > 100 µM
TGI (HCT-116 colon): > 100 µM
TGI (HCT-15 colon): > 100 µM
TGI (HOP-62 NSCLC): > 100 µM
TGI (HOP-92 NSCLC): > 100 µM
TGI (HS 578T breast): > 100 µM
TGI (HT29 colon): > 100 µM
TGI (IGROV1 ovarian): > 100 µM
TGI (K-562 leukemia): > 100 µM
TGI (KM12 colon): > 100 µM
TGI (LOX IMVI melanoma): > 100 µM
TGI (M14 melanoma): > 100 µM
TGI (MALME-3M melanoma): > 100 µM
TGI (MCF7 breast): > 100 µM
TGI (MDA-MB-231 breast): > 100 µM
TGI (MDA-MB-435): > 100 µM
TGI (MDA-N): > 100 µM
TGI (MOLT-4 leukemia): > 100 µM
TGI (NCI-H226 lung): 17.4 µM
TGI (NCI-H23 lung): > 100 µM
TGI (NCI-H460 lung): > 100 µM
TGI (NCI-H522 lung): > 100 µM
TGI (NCI/ADR-RES ovarian): > 100 µM
TGI (OVCAR-3 ovarian): > 100 µM
TGI (OVCAR-4 ovarian): > 100 µM
TGI (OVCAR-5 ovarian): > 100 µM
TGI (OVCAR-8 ovarian): > 100 µM
TGI (PC-3 prostate): > 100 µM
TGI (RPMI-8226 leukemia): > 100 µM
TGI (RXF 393 renal): > 100 µM
TGI (SF-268 CNS): > 100 µM
TGI (SF-295 CNS): > 100 µM
TGI (SF-539 CNS): > 100 µM
TGI (SK-MEL-2 melanoma): > 100 µM
TGI (SK-MEL-28 melanoma): > 100 µM
TGI (SK-MEL-5 melanoma): > 100 µM
TGI (SK-OV-3 ovarian): > 100 µM
TGI (SN12C renal): > 100 µM
TGI (SNB-19 CNS): > 100 µM
TGI (SNB-75 CNS): > 100 µM
TGI (SR leukemia): > 100 µM
TGI (SW-620 colon): > 100 µM
TGI (T-47D breast): > 100 µM
TGI (TK-10 renal): > 100 µM
TGI (U251 CNS): > 100 µM
TGI (UACC-257 melanoma): > 100 µM
TGI (UACC-62 melanoma): > 100 µM
TGI (UO-31 renal): > 100 µM

From PubChem BioAssay (NCI)
